Source: publication PMC6689975, “Novel Cell Wall Antifungals Reveal a Special Synergistic Activity in pbr1 Mutants Resistant to the Glucan Synthesis Antifungals Papulacandins and Echinocandins” (Frontiers in Microbiology, 2019)
In brackets after ≈: the same amount, converted by molar mass. Where two headings read alike, the source gives them in different places.

What was measured:
Test in all cases: microbe, parasite or virus in culture
Conditions in all cases: 48 h, read-out: MIC
[1] = system: Candida albicans C. a.^f (Table 4); design: species or system yeast; tube dilution MIC in YEPD (± 1.2 M sorbitol), complete growth inhibition by turbidity
Method: (§1) Standard YEPD (Yeast Extract, Peptone, Dextrose) ([Sherman, 1990]), YEPD+S (YEPD with 1.2M sorbitol), YES (Yeast Extract, Dextrose and Supplements of Adenine, Histidine, Leucine, Uracil and Lysine) ([Alfa et al., 1993]) and YES+S (YES with 1.2 M sorbitol) ([Ribas et al., 1991]; [Ishiguro et al., 1997]), media were used for determination of MIC values of the tested compounds. A stock solution of 10 mg/ml of each tested compounds was prepared in DMSO and serial dilutions in DMSO were prepared. The final concentration of DMSO was 2% in the YEPD medium. […] The serial dilutions of compounds were dispensed into test tubes with 1 ml of YEPD or YEPD+S to make final concentrations of 200, 100, 50, 25, 12.5, 6.26, 3.125, 1.6, 0.8 and 0.4 μg/ml. The tested yeast strains were previously grown in YEPD, YEPD+S, YES or YES+S agar plates at 30°C for 48 h. For inoculation of YEPD or YEPD+S macro test tubes a suspension of tested fungus was produced with 10^5 cfu/ml (cfu - colony forming unit). 10 μl of suspension was used for inoculation of each tube. After 48 h incubation at 30°C the tubes were checked. The MIC value is the lowest concentration of the tested compound that could inhibit the fungal growth and the medium remained clear. From each tube 10 μl culture was plated on YEPD agar medium to check the contamination. The MIC tests were carried out in three parallels. Micro-culture assays of large numbers of samples were analyzed as described) ([Martins et al., 2011]). Essentially early log-phase cells were grown in YEPD, YEPD+S, YES or YES+S (1.2 M sorbitol) medium at 30°C, and diluted to cell density of 4 X 10^6 cells/ml in YEPD, YEPD+S, YES or YES+S medium and aliquots of 100 μl were dispensed into each small test tube (3 ml test tube size). Then, another 100 μl of YEPD, YEPD+S, YES or YES+S with the corresponding dilution of each compound at 2X concentration (4% DMSO) was added. The final volume was 200 μl, with the cells diluted to of 2 X 10^6 cells/ml and each compound diluted to 1X final concentration, containing increasing concentrations of antifungal (0, 1, 2, 5, 10, 20, 50, 100 and 200 μg/ml) or an equivalent volume of solvent (2% DMSO). The cells were grown at 30°C in an orbital roller and turbidity was analyzed after 24 and 48 h of incubation. The MIC was determined as the minimal concentration of tested compound that produced complete cell growth inhibition and kept the medium clear. The MIC values were calculated from at least three independent experiments.

[2] = system: Candida albicans C. a.^g (Table 4); design: species or system yeast; tube dilution MIC in YEPD (± 1.2 M sorbitol), complete growth inhibition by turbidity
Method: as §1

[3] = system: Candida albicans C. a.^h (Table 4); design: species or system yeast; tube dilution MIC in YEPD (± 1.2 M sorbitol), complete growth inhibition by turbidity
Method: as §1

[4] = system: T1, Saccharomyces cerevisiae S. c.^d (wild-type CVX12-3A); design: species or system yeast; tube dilution MIC in YEPD (± 1.2 M sorbitol), complete growth inhibition by turbidity
T1 construct: CVX12-3A
Method: as §1

[5] = system: T2, Schizosaccharomyces pombe S. p.^a (wild-type 972 h-); design: species or system yeast; tube dilution MIC in YEPD (± 1.2 M sorbitol), complete growth inhibition by turbidity
T2 construct: 972 h-
Method: as §1

[6] = system: Candida albicans C. a.^f (Tables 5, 6); design: species or system yeast; micro tube dilution MIC in YES (± 1.2 M sorbitol), complete growth inhibition by turbidity
Method: as §1, with “h.” for “h. For inoculation of YEPD or YEPD+S macro test tubes a suspension of tested fungus was produced with 10^5 cfu/ml (cfu - colony forming unit). 10 μl of suspension was used for inoculation of each tube. After 48 h incubation at 30°C the tubes were checked. The MIC value is the lowest concentration of the tested compound that could inhibit the fungal growth and the medium remained clear. From each tube 10 μl culture was plated on YEPD agar medium to check the contamination. The MIC tests were carried out in three parallels.”

[7] = system: Candida albicans C. a.^g (Table 6); design: species or system yeast; micro tube dilution MIC in YES (± 1.2 M sorbitol), complete growth inhibition by turbidity
Method: as §1, with “h.” for “h. For inoculation of YEPD or YEPD+S macro test tubes a suspension of tested fungus was produced with 10^5 cfu/ml (cfu - colony forming unit). 10 μl of suspension was used for inoculation of each tube. After 48 h incubation at 30°C the tubes were checked. The MIC value is the lowest concentration of the tested compound that could inhibit the fungal growth and the medium remained clear. From each tube 10 μl culture was plated on YEPD agar medium to check the contamination. The MIC tests were carried out in three parallels.”

[8] = system: T1, Saccharomyces cerevisiae S. c.^d (wild-type CVX12-3A); design: species or system yeast; micro tube dilution MIC in YES (± 1.2 M sorbitol), complete growth inhibition by turbidity
Method: as §1, with “h.” for “h. For inoculation of YEPD or YEPD+S macro test tubes a suspension of tested fungus was produced with 10^5 cfu/ml (cfu - colony forming unit). 10 μl of suspension was used for inoculation of each tube. After 48 h incubation at 30°C the tubes were checked. The MIC value is the lowest concentration of the tested compound that could inhibit the fungal growth and the medium remained clear. From each tube 10 μl culture was plated on YEPD agar medium to check the contamination. The MIC tests were carried out in three parallels.”

[9] = system: T2, Schizosaccharomyces pombe S. p.^a (wild-type 972 h-); design: species or system yeast; micro tube dilution MIC in YES (± 1.2 M sorbitol), complete growth inhibition by turbidity
Method: as §1, with “h.” for “h. For inoculation of YEPD or YEPD+S macro test tubes a suspension of tested fungus was produced with 10^5 cfu/ml (cfu - colony forming unit). 10 μl of suspension was used for inoculation of each tube. After 48 h incubation at 30°C the tubes were checked. The MIC value is the lowest concentration of the tested compound that could inhibit the fungal growth and the medium remained clear. From each tube 10 μl culture was plated on YEPD agar medium to check the contamination. The MIC tests were carried out in three parallels.”

SMILES: C[C@@H]1[C@H](O)[C@@H](C)/C=C/C=C/C=C/C=C/C=C/C=C/C=C/[C@H](O[C@@H]2O[C@H](C)[C@@H](O)[C@H](N)[C@@H]2O)C[C@@H]2O[C@](O)(C[C@@H](O)C[C@@H](O)[C@H](O)CC[C@@H](O)C[C@@H](O)CC(=O)O[C@H]1C)C[C@H](O)[C@H]2C(=O)O [amphotericin B]
- MIC [1]: 0.4 µg/mL (≈ 0.433 µM)
- MIC [2]: 0.8 µg/mL (≈ 0.866 µM)
- MIC [3]: 0.4 µg/mL (≈ 0.433 µM)
- MIC [4]: 0.2 µg/mL (≈ 0.216 µM)
- MIC [5]: < 0.1 µg/mL
- MIC [6]: 0.8 µg/mL (≈ 0.866 µM)
- MIC [7]: 0.4 µg/mL (≈ 0.433 µM)
- MIC [8]: 0.2 µg/mL (≈ 0.216 µM)
- MIC [9]: < 0.1 µg/mL
